Experimental data taken from paper PMC6044636 (ACS Omega, 2016).

Molecular target: A2AR (Homo sapiens, UniProt P29274)
Format: binding

Sequence of A2AR (P29274 whole entry): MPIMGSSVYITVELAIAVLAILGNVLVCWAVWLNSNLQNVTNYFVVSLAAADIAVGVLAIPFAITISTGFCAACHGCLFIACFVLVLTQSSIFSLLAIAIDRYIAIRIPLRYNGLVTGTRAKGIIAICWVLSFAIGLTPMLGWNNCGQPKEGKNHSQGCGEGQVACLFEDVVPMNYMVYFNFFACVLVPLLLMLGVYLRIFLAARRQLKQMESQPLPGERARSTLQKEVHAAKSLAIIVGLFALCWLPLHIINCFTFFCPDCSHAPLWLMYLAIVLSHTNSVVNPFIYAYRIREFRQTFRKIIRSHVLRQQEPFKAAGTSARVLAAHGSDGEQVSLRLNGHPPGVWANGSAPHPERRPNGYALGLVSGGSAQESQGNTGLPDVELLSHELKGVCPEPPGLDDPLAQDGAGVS

Cn1c(-n2nccn2)nc2c(N)nc(CCC3CCCCC3)nc21 [Compound 8, 2-(2-Cyclohexylethyl)-9-methyl-8-(2H-1,2,3-triazol-2-yl)-9H-purin-6-amine]
Ki: 1.2 nM
